The test system of the test is serotonin uptake in rat whole brain and hypothalamic synaptosomes. The test is described as follows: [3H]-Serotonin Uptake in Rat Whole Brain and Hypothalamic Synaptosomes. It is filed as biochemical, rat (male CR Wistar). Conditions: rat whole brain or hypothalamic synaptosomes; 50 nM [3H]-5-hydroxytryptamine; 37° C., 5 minutes; pH 7.4; log-probit analysis; read-out: Inhibition of Serotonin Uptake (IC50).

pIC50: −log10 of the molar value. Where a name gives a salt, the structure may show the parent alone.

Consider one molecule from US5268468A, “N-nitrosophenoxybenzenepropanamine and N-1-chloroethyl carbamate intermediates” (Hoechst-Roussel Pharmaceuticals Incorporated, priority 1993, dated 1993).

Protocol: [^3 H]-Serotonin Uptake in Rat Whole Brain
A. Animals: Male CR Wistar rats (100-125 g).
1. Krebs-Henseleit Bicarbonate Buffer, pH 7.4 (KHBB):
Make a 1 liter batch, containing the following salts.
Potassium chloride 0.35 4.7
Calcium chloride 0.14 1.3
Aerate for 60 min. with 95% oxygen/5% carbon dioxide,
2. 0.32 M Sucrose: 21.9 g of sucrose, bring to 200 ml.
3. Serotonin creatinine sulfate 0.1 mM stock solution is
made up in 0.01 N hydrochloric acid. This is used to
dilute the specific activity of radiolabeled
[H^3 ]-5-hydroxytryptamine (serotonin).
4. 5-[1,2-^3 H(N)]-Hydroxytryptamine creatinine sulfate
(Serotonin), specific activity 20-30 Ci/mmol is used.
The final desired concentration of
[H^3 ]-5-hydroxytryptamine in the assay is 50 nM. The
dilution factor is 0.8. Therefore, the KHBB is made up to
contain 62.5 nM [H^3 ]-5-hydroxy-tryptamine.
A) 56.1 μl of 0.1 mM 5-hydroxytryptamine
*B) 0.64 nmole of 5-hydroxytryptamine
5. For most assays, a 1 mM stock solution of the test com-
pound is made up in suitable solvent and serially diluted
such that the final concentration in the assay ranges from
2 × 10^-8 to 2 × 10^-5 M. Seven concentrations
for each assay. Higher or lower concentrations may be
used depending on the potency of the compound.
Male Wistar rats are decapitated and the brain rapidly
removed. […]
scintillation vials, and counted in 10 ml of Liquiscint […]

In the case of `CN(N)CCC(Oc1ccc(C(F)(F)F)cc1)c1ccccc1` (stereo not shown) [2-Methyl-2-[3-phenyl-3-[(4-trifluoromethyl)phenoxy]propyl]hydrazine maleate], the pIC50 was 5.91.
